Source: publication PMC10004157

| Compound | melting point [°C] |
| --- | --- |
| OCCOc1nc(SCc2cccc(F)c2F)nc2cnccc12 [Compound 24e, 3-[(2-(2,3-Difluorobenzylmercapto)-pyrido[3,4-d]pyrimidine-4-yl)oxy]ethanol] | 181 to 183 |
| Cc1ccc(-c2cc3c(N[C@H](C)CO)nc(SCc4cccc(F)c4F)nc3cn2)o1 [Compound 17c, (2R)-2-[(2-(2,3-Difluorobenzylmercapto)-6-(5-methylfuran-2-yl)-pyrido[3,4-d]pyrimidine-4-yl)amino]propanol] | 162 to 164 |
| C[C@H](CO)Nc1nc(SCc2cccc(F)c2F)nc2cnc(Cl)cc12 [Compound 16a, (2R)-2-[(6-Chloro-2-(2,3-difluorobenzylmercapto)-pyrido[3,4-d]pyrimidine-4-yl)amino]propanol] | 211 to 213 |
| C[C@H](CO)Nc1nc(SCc2cccc(F)c2F)nc2cnc(N)cc12 [Compound 21, (2R)-2-[(6-Amino-2-(2,3-difluorobenzylmercapto)-pyrido[3,4-d]pyrimidine-4-yl)amino]propanol] | 174 to 176 |
| C[C@H](CO)Nc1nc(SCc2cccc(F)c2F)nc2cnc(-c3cccs3)cc12 [Compound 17d, (2R)-2-[(2-(2,3-Difluorobenzylmercapto)-6-(2-thienyl)-pyrido[3,4-d]pyrimidine-4-yl)amino]propanol] | 176 to 178 |
| OCC(O)CNc1nc(SCc2cccc(F)c2F)nc2cnccc12 (stereo not drawn) [Compound 24c, 3-[(2-(2,3-Difluorobenzylmercapto)-pyrido[3,4-d]pyrimidine-4-yl)amino]propan-1,2-diol] | 156 to 158 |
| OCCNc1nc(SCc2cccc(F)c2F)nc2cnccc12 [Compound 24d, 3-[(2-(2,3-Difluorobenzylmercapto)-pyrido[3,4-d]pyrimidine-4-yl)amino]ethanol] | 181 to 183 |
| CC(C)(CO)Nc1nc(SCc2cccc(F)c2F)nc2cnccc12 [Compound 24b, 2-[(2-(2,3-Difluorobenzylmercapto)-pyrido[3,4-d]pyrimidine-4-yl)amino]-2-methyl-propan-1-ol] | 166 to 168 |
| C[C@H](CO)Nc1nc(SCc2cccc(F)c2F)nc2cnc(-c3ccccc3)cc12 [Compound 17a, (2R)-2-[(2-(2,3-Difluorobenzylmercapto)-6-phenyl-pyrido[3,4-d]pyrimidine-4-yl)amino]propanol] | 202 to 204 |
| C[C@H](CO)Nc1nc(SCc2cccc(F)c2F)nc2cnc(-c3ccco3)cc12 [Compound 17b, (2R)-2-[(2-(2,3-Difluorobenzylmercapto)-6-(2-furanyl)-pyrido[3,4-d]pyrimidine-4-yl)amino]propanol] | 163 to 165 |
| CC[C@H](CO)Nc1nc(SCc2cccc(F)c2F)nc2cnccc12 [Compound 24a, (2R)-2-[(2-(2,3-Difluorobenzylmercapto)-pyrido[3,4-d]pyrimidine-4-yl)amino]butanol] | 174 to 176 |
| C[C@H](CO)Nc1nc(SCc2cccc(F)c2F)nc2cnc(-n3ccnc3)cc12 [Compound 16b, (2R)-2-[(6-Imidazolyl-2-(2,3-difluorobenzylmercapto)-pyrido[3,4-d]pyrimidine-4-yl)amino]propanol] | 245 to 247 |
| C[C@H](CO)Nc1nc(SCc2cccc(F)c2F)nc2cncc(Cl)c12 [Compound 9, (2R)-2-[(5-Chloro-2-(2,3-difluorobenzylmercapto)-pyrido[3,4-d]pyrimidine-4-yl)amino]propanol] | 146 to 148 |

Results, then the molecule that gave them:

| melting point [°C] | Compound |
| --- | --- |
| 147 to 149 | CCCCCCSc1nc(N[C@H](C)CO)c2ccncc2n1 [Compound 26e, (2R)-2-[(2-(Hexylmercapto)-pyrido[3,4-d]pyrimidine-4-yl)amino]propanol] |
| 136 to 140 | C[C@H](CO)Nc1nc(NCc2cccc(F)c2F)nc2cnccc12 [Compound 26a, (2R)-2-[(2-(2,3-Difluorobenzylamino)-pyrido[3,4-d]pyrimidine-4-yl)amino]propanol] |
| 193 to 196 | C[C@H](CO)Nc1nc(Sc2ccccc2)nc2cnccc12 [Compound 26c, (2R)-2-[(2-(Phenylmercapto)-pyrido[3,4-d]pyrimidine-4-yl)amino]propanol] |
| 182 to 184 | C[C@H](CO)Nc1nc(SCCc2ccccc2)nc2cnccc12 [Compound 26d, (2R)-2-[(2-(Phenylethylmercapto)-pyrido[3,4-d]pyrimidine-4-yl)amino]propanol] |
| 167 to 169 | C[C@H](CO)Nc1nc(OCc2cccc(F)c2F)nc2cnccc12 [Compound 26b, (2R)-2-[(2-(2,3-Difluorobenzyloxy)-pyrido[3,4-d]pyrimidine-4-yl)amino]propanol] |
